In general, EC50 refers to the concentration at which the effect is half-maximal.

Results on eight molecules are retold here after patent US20230286973A1, “PROTEIN SECRETION INHIBITORS” (KEZAR LIFE SCIENCES, priority 2020, published 2023).

Data set [1] relates to IL-2-FL/Gaussia Luciferase. As to the kind of experiment: Dox Induced IL2-FL-Gluc Assay. The data set is classed as cell-based. Particulars: for IC50: 24 hr Dox induction, 293FRT/TO cells, mean, read-out: 24 hr Dox Inducible IL2FLGluc 293FRT/TO: Mean IC50; for 24 hr Dox Inducible IL2FLGluc 293FRT/TO: IL2/PD1: ratio of IL2FLGluc IC50 to PD1ssGluc IC50, '<=>' given where both are I.A. An outline of the steps: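 Compounds in DMSO/medium with doxycycline were applied to a 293 T-REx stable line expressing an IL-2 (aa 1-153)–Gaussia luciferase fusion under tetracycline-regulated control, cells seeded one day earlier; incubation at 37 °C, 5% CO2. Structures drawn without stereochemistry were tested as stereoisomer mixtures.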

Data set [2] is described as follows: Liver Microsome Stability Assay (monkey). Particulars: monkey liver microsomes, with NADPH, 1.0 uM compound. In general terms: Liver microsomes are vesicles of endoplasmic reticulum, rich in cytochrome P450 enzymes.
Description: (§1) Stability of a compound was assessed in the presence of liver microsomes from various sources—mouse, rat, monkey and human liver microsomes. 1.0 uM compound, 0.4% DMSO in 0.1 M Potassium Phosphate with 1.0 mg/mL liver microsomes, were incubated at 37° C. with or without 1 mM NADPH. The samples were quenched at 0, and 30 minutes.
Data set [3] has as its system PD1-ss+10aa/Gaussia Luciferase. In words: Dox-Induced PD1-ss-Gluc Assay. Format: cell-based. The settings on record: 24 hr Dox induction; 293FRT/TO cells; mean; read-out: 24 hr Dox Inducible PD1ssGluc 293FRT/TO: Mean IC50. An outline of the steps:
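Doxycycline-induced expression of a PD1-ss+10aa/Gaussia luciferase reporter is measured in stable Flp-In 293 T-REx cells. Compound dilutions containing doxycycline are added one day after plating and incubated at 37 °C, 5% CO2. Values for unassigned stereocentres refer to stereoisomer mixtures.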

Data set [4] is described as follows: Liver Microsome Stability Assay (mouse). The settings on record: mouse liver microsomes, with NADPH, 1.0 uM compound.
Description: as §1
Data set [5] concerns HER3-ss+4aa/Gaussia Luciferase. As to the kind of experiment: Dox-Induced Her3-ss-Gluc Assay. The data set is classed as cell-based. The settings on record: 24 hr Dox induction; 293FRT/TO cells; mean; read-out: 24 hr Dox Inducible Her3(ss + 4)Gluc 293FRT/TO: Mean IC50. The essentials: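 Compounds were diluted in DMSO/media containing doxycycline. They were added to Flp-In 293 T-REx cells plated the previous day, then incubated at 37 °C under 5% CO2. These cells stably express, under T-REx control, Gaussia luciferase fused to the HER3 signal sequence plus 4 amino acids.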

The subject of data set [6] is multiple myeloma cell line U266B1. In words: U266 Cell Viability Assay. Format: cell-based, human. Particulars: Homo sapiens, U-266, 48 h, U266B1 cells, Celltiter-Glo. The essentials:
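CellTiter-Glo luminescence was read after a 48 h compound exposure (37 °C, 5% CO2) of human U266B1 myeloma cells grown in 10% FBS-supplemented RPMI 1640. Data for structures shown without defined stereochemistry refer to stereoisomer mixtures.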

Data set [7] has as its system multiple myeloma cell line NCI-H929. As to the kind of experiment: H929 Cell Viability Assay. Particulars: Homo sapiens, NCI-H929, 48 h, NCI-H929 cells, Celltiter-Glo. Format: cell-based, human. The essentials: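 Luminescent CellTiter-Glo read-out of viability after a 48 h exposure (37° C, 5% CO2) of NCI-H929 myeloma cells to compound dilutions in RPMI 1640 plus 10% FBS. Data for structures drawn without stereochemistry refer to stereoisomer mixtures.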
In general terms: Cellular ATP, detected with luciferase, serves as a proxy for viable cell number.

Data set [8] can be described thus: Liver Microsome Stability Assay (rat). Particulars: rat liver microsomes, with NADPH, 1.0 uM compound.
Description: as §1
Data set [9] deals with TNFα-FL/Gaussia Luciferase. In words: Dox Induced TNFα-FL-Gluc Assay. The data set is classed as cell-based. Particulars: for IC50: 24 hr Dox induction, 293FRT/TO cells, mean, read-out: 24 hr Dox Inducible TNFaFLGluc 293FRT/TO: Mean IC50; for 24 hr Dox Inducible TNFaFLGluc 293FRT/TO: TNF/PD1: ratio of TNFaFLGluc IC50 to PD1ssGluc IC50, '<=>' given where both are I.A. The essentials:
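Compound was added with doxycycline to cells plated a day earlier, incubating at 37° C under 5% CO2. The reporter line is 293 T-REx expressing a TNFα (1-233)–Gaussia luciferase fusion under tetracycline-regulated control.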

Data set [10] can be described thus: Liver Microsome Stability Assay (human). Particulars: human liver microsomes, with NADPH, 1.0 uM compound.
Description: as §1

Take `O=C(Nc1nc([C@H]2CCCN2c2ccncc2)cs1)c1cccn1Cc1ccncc1` [Compound E48, (R)-N-(4-(1-(pyridin-4-yl)pyrrolidin-2-yl)thiazol-2-yl)-1-(pyridin-4-ylmethyl)-1H-pyrrole-2-carboxamide]: the IC50 in [1] was 7.83 µM; in data set [3], 7.89 µM; in data set [5], 13.5 µM; in [9] it was greater than 25 µM. In [1], the “24 hr Dox Inducible IL2FLGluc 293FRT/TO: IL2/PD1” value was determined as 0.99. In data set [2], the “Liver Microsome Stability (Multiple Species): Monkey - % Remaining after 30 min w/NADPH” value is reported as 0.12%. Further, the “Liver Microsome Stability (Multiple Species): Mouse - % Remaining after 30 min w/NADPH” value in data set [4] is on record as 2.74%. In addition, the EC50 in data set [6] and in data set [7] was greater than 25 µM each time. Further, the “Liver Microsome Stability (Multiple Species): Rat - % Remaining after 30 min w/NADPH” value in [8] came to 0.45%. Moreover, in data set [9], the “24 hr Dox Inducible TNFaFLGluc 293FRT/TO: TNF/PD1” value is recorded as greater than 3.17. Also, the “Liver Microsome Stability (Multiple Species): Human - % Remaining after 30 min w/NADPH” value in data set [10] was 0.93%.
Turning to `O=C(NC1=NC(CCc2ccccc2)CS1)c1cccn1Cc1ccncc1` (stereo not drawn) [Compound E50], the IC50 was 5.56 µM in data set [1], 1.96 µM in [3], 4.37 µM in data set [5] and greater than 25 µM in data set [9]. Further, the “24 hr Dox Inducible IL2FLGluc 293FRT/TO: IL2/PD1” value in data set [1] is reported as 2.8. For the same molecule, the “Liver Microsome Stability (Multiple Species): Monkey - % Remaining after 30 min w/NADPH” value in data set [2] was 0.08%. The “Liver Microsome Stability (Multiple Species): Mouse - % Remaining after 30 min w/NADPH” value in [4] came to 0.23%. For the same molecule, the EC50 in data set [6] and in data set [7] was greater than 25 µM each time. Besides, the “Liver Microsome Stability (Multiple Species): Rat - % Remaining after 30 min w/NADPH” value in data set [8] was 0.64%. Moreover, the “24 hr Dox Inducible TNFaFLGluc 293FRT/TO: TNF/PD1” value in [9] is recorded as greater than 12.8. Also, the “Liver Microsome Stability (Multiple Species): Human - % Remaining after 30 min w/NADPH” value in data set [10] was determined as 0.06%.
For the molecule `O=C(NC1=NC(/C=C/c2ccccc2)CS1)c1cccn1Cc1ccncc1` (stereo not drawn) [Compound E51], the IC50 in [1], in data set [3], in data set [5] and in [9] was greater than 25 µM throughout. Besides, the “24 hr Dox Inducible IL2FLGluc 293FRT/TO: IL2/PD1” value in data set [1] was 1. For the same molecule, the “Liver Microsome Stability (Multiple Species): Monkey - % Remaining after 30 min w/NADPH” value in data set [2] was 0.06%. The “Liver Microsome Stability (Multiple Species): Mouse - % Remaining after 30 min w/NADPH” value in data set [4] stood at 0.08%. Moreover, the half-maximal effective concentration (EC50) in data set [6] and in data set [7] was greater than 25 µM throughout. Also, the “Liver Microsome Stability (Multiple Species): Rat - % Remaining after 30 min w/NADPH” value in data set [8] amounted to 0.98%. Moreover, in [10], the “Liver Microsome Stability (Multiple Species): Human - % Remaining after 30 min w/NADPH” value is listed as 0.01%.
On to `Cc1ccc(S(=O)(=O)N(C(=O)c2cccn2Cc2ccncc2)c2nc([C@H]3CCCN3S(=O)(=O)c3ccc(C)cc3)cs2)cc1` [Compound E52, (R)-1-(pyridin-4-ylmethyl)-N-tosyl-N-(4-(1-tosylpyrrolidin-2-yl)thiazol-2-yl)-1H-pyrrole-2-carboxamide], for which the IC50 in data set [1], in [3], in [5] and in data set [9] was greater than 25 µM each time. Further, the “24 hr Dox Inducible IL2FLGluc 293FRT/TO: IL2/PD1” value in data set [1] is 1. Also, the “Liver Microsome Stability (Multiple Species): Monkey - % Remaining after 30 min w/NADPH” value in data set [2] is 0.32%. In addition, the “Liver Microsome Stability (Multiple Species): Mouse - % Remaining after 30 min w/NADPH” value in data set [4] is 1.28%. Also, the EC50 in data set [6] and in [7] was greater than 25 µM throughout. Also, the “Liver Microsome Stability (Multiple Species): Rat - % Remaining after 30 min w/NADPH” value in data set [8] was determined as 9.09%. For the same molecule, the “Liver Microsome Stability (Multiple Species): Human - % Remaining after 30 min w/NADPH” value in data set [10] amounted to 0.44%.
For `O=C(Nc1ccccn1)c1csc(NC(=O)c2cccn2Cc2ccncc2)n1` [Compound E53], the IC50 in [1], in data set [3], in [5] and in [9] was greater than 25 µM in each case. Moreover, the “24 hr Dox Inducible IL2FLGluc 293FRT/TO: IL2/PD1” value in [1] stood at 1. Besides, the “Liver Microsome Stability (Multiple Species): Monkey - % Remaining after 30 min w/NADPH” value in [2] was found to be 2.89%. Also, in data set [4], the “Liver Microsome Stability (Multiple Species): Mouse - % Remaining after 30 min w/NADPH” value is on record as 5%. In addition, the EC50 in data set [6] and in data set [7] was greater than 25 µM each time. Besides, the “Liver Microsome Stability (Multiple Species): Rat - % Remaining after 30 min w/NADPH” value in data set [8] stood at 5.58%. Moreover, the “Liver Microsome Stability (Multiple Species): Human - % Remaining after 30 min w/NADPH” value in [10] amounted to 7.99%.
On to `N#Cc1cnccc1Cn1cccc1C(=O)Nc1nc([C@H]2CCCN2c2ccccc2)cs1` [Compound E59, (R)-1-((3-cyanopyridin-4-yl)methyl)-N-(4-(1-phenylpyrrolidin-2-yl)thiazol-2-yl)-1H-pyrrole-2-carboxamide], for which the IC50 in data set [1] is 0.932 µM; in [3], 0.408 µM; in [5] it was 0.581 µM; in [9], 12.6 µM. The “24 hr Dox Inducible IL2FLGluc 293FRT/TO: IL2/PD1” value in data set [1] is listed as 2.3. Moreover, in [2], the “Liver Microsome Stability (Multiple Species): Monkey - % Remaining after 30 min w/NADPH” value turned out to be 0.56%. For the same molecule, in [4], the “Liver Microsome Stability (Multiple Species): Mouse - % Remaining after 30 min w/NADPH” value is 0.39%. Also, the concentration for a half-maximal effect (EC50) in [6] is greater than 25 µM; in data set [7], 15.2 µM. Further, in data set [8], the “Liver Microsome Stability (Multiple Species): Rat - % Remaining after 30 min w/NADPH” value came out at 0.83%. The “24 hr Dox Inducible TNFaFLGluc 293FRT/TO: TNF/PD1” value in [9] is listed as 30.9. In data set [10], the “Liver Microsome Stability (Multiple Species): Human - % Remaining after 30 min w/NADPH” value was 0.22%.
With `N#Cc1cc(Cn2cccc2C(=O)Nc2nc([C@H]3CCCN3c3ccccc3)cs2)ccn1` [Compound E60, (R)-1-((2-cyanopyridin-4-yl)methyl)-N-(4-(1-phenylpyrrolidin-2-yl)thiazol-2-yl)-1H-pyrrole-2-carboxamide], the IC50 was 1.69 µM in data set [1], 0.802 µM in [3], 1.28 µM in [5] and greater than 25 µM in data set [9]. In addition, in [1], the “24 hr Dox Inducible IL2FLGluc 293FRT/TO: IL2/PD1” value was 2.1. The “Liver Microsome Stability (Multiple Species): Monkey - % Remaining after 30 min w/NADPH” value in [2] came out at 0.19%. In [4], the “Liver Microsome Stability (Multiple Species): Mouse - % Remaining after 30 min w/NADPH” value came out at 6.59%. Moreover, the concentration for a half-maximal effect (EC50) is greater than 25 µM in [6] and 23.6 µM in [7]. Also, the “Liver Microsome Stability (Multiple Species): Rat - % Remaining after 30 min w/NADPH” value in data set [8] is reported as 2.04%. Moreover, the “24 hr Dox Inducible TNFaFLGluc 293FRT/TO: TNF/PD1” value in data set [9] is greater than 31.2. In addition, the “Liver Microsome Stability (Multiple Species): Human - % Remaining after 30 min w/NADPH” value in data set [10] was found to be 1.3%.
As to `Cc1ccc(N2CCC[C@@H]2c2csc(NC(=O)c3cccn3Cc3ccncc3)n2)nc1` [Compound E62, (R)-N-(4-(1-(5-methylpyridin-2-yl)pyrrolidin-2-yl)thiazol-2-yl)-1-(pyridin-4-ylmethyl)-1H-pyrrole-2-carboxamide], the IC50 in [1] was 0.00989 µM; in data set [3], 0.00294 µM; in [5], 0.00852 µM; in [9], 0.043 µM. Besides, the “24 hr Dox Inducible IL2FLGluc 293FRT/TO: IL2/PD1” value in data set [1] worked out at 3.4. Further, the “Liver Microsome Stability (Multiple Species): Monkey - % Remaining after 30 min w/NADPH” value in data set [2] amounted to 0.19%. For the same molecule, in data set [4], the “Liver Microsome Stability (Multiple Species): Mouse - % Remaining after 30 min w/NADPH” value came to 1.51%. Further, the EC50 in [6] is greater than 25 µM; in data set [7] it was 0.126 µM. Moreover, in data set [8], the “Liver Microsome Stability (Multiple Species): Rat - % Remaining after 30 min w/NADPH” value is recorded as 15.4%. The “24 hr Dox Inducible TNFaFLGluc 293FRT/TO: TNF/PD1” value in data set [9] came to 14.6. The “Liver Microsome Stability (Multiple Species): Human - % Remaining after 30 min w/NADPH” value in data set [10] is recorded as 0.69%.
